This note sets out measurements from US9133417B2, “Liquid cleaning and disinfecting compositions comprising an assymetrically branched amine oxide” (THE PROCTER & GAMBLE COMPANY, priority 2012, dated 2015).

Conditions in all cases: Shake Flask, 1 hour contact (T1h vs T0), incubation 32 °C 24 hours; test concentration not given
The test system of test [1] is Staphylococcus aureus (SA) CIP 4.83. On the procedure:
(§1) The antibacterial efficacy was tested following the below Shake Flask protocol:
(§2) • Microbial strains: Staphylococcus aureus (SA) CIP 4.83, Escherichia Coli (EC) CIP 53.126, Pseudomonas Aeruginosa (PA) CIP 82.113 • Culture media: TSA medium—Neutralizing medium (Dey Engley Broth)—Buffered Peptoned water (BPW-F)—Shake flask bottles—Physiological water • Incubator Shake Flask Protocol: ASTM E2149 Shake Flask Method • Inoculum counting: • For each strain, prepare an inoculum at 0.5 Mc Farland (McF). Dilute 1 ml of the inoculum with 9 ml of physiological water. Select 1 ml of the resulting dilution and dilute again with 9 ml of physiological water. Execute 5 dilution steps accordingly so that a 10^−5 dilution is obtained. • Recover 100 microliter of the 10^−5 dilution and inoculate 2 petri dishes. • Add 20 ml of TSA medium. • Incubate at 32+/−0.5° C. during 24 hours • Negative control: • Put 5 ml of SA, EC or PA inoculums into a shake flask. Add 45 ml of pure BPW-F solution. • Dilute twice in neutralizing medium: Recover 1 ml of the pure solution and add 9 ml of the neutralizing medium (=10^−1 and 10^−2 dilution). • Wait 5 minutes and put 100 microliter of the pure solution and the 10^−2 dilution into 2 petri dishes, add 20 ml of TSA medium (T0). • Do the same operation after 1 hour (T1h). • Incubate at 32+/−0:5° C. during 24 hours • Sample testing: • Prepare a solution at a specified concentration (see data tables for actual concentrations as 100% active—final volume 50 ml). For example, for a 50% (V/V), dilute 25 ml of product with 20 ml of BPW-F and 5 ml of the inoculums (SA, EC or PA) at 0.5 McF. • Dilute twice in neutralizing medium: Recover 1 ml of the pure solution and add 9 ml of the neutralizing medium (=10^−1 and 10^−2 dilution). • Wait 5 minutes and put 100 microliter of the pure solution and the 10^−2 dilution into 2 petri dishes, add 20 ml of TSA medium (T0). • Do the same operation after 1 hour (T1h). • Incubate at 32+/−0.5° C. during 24 hours • Calculation of log reduction: • The log reduction is calculated as log (T0/T1h)

Test [2] relates to Pseudomonas Aeruginosa (PA) CIP 82.113. The procedure: as §1, §2
The subject of test [3] is Escherichia Coli (EC) CIP 53.126. The procedure:
as §1, §2

“asymmetrically branched C12-14 alkyl dimethyl amine oxide”: the “log reduction, log (T0/T1h), St. Aureus” value in test [1] is 4.06. Moreover, in test [2], the “log reduction, log (T0/T1h), Ps Aeroginosa” value (“log reduction … Ps Aeroginosa” below) is reported as 3.98.
Regarding “linear C12-14 alkyl dimethyl amine oxide [reference compound]”, the “log reduction, log (T0/T1h), E. coli” value in test [3] was 0.41. In addition, the “log reduction, log (T0/T1h), St. Aureus” value in test [1] is listed as 0.73. Besides, the “log reduction … Ps Aeroginosa” value in test [2] amounted to 2.10.
Consider “symmetrically branched C12-14 alkyl dimethyl amine oxide”, for which the “log reduction, log (T0/T1h), E. coli” value in test [3] stood at 2.6. For the same substance, in test [2], the “log reduction … Ps Aeroginosa” value came out at 3.29.
